The target of one series is T1, TRKA(G595R) (Homo sapiens, UniProt P04629, G595R).
T1 construct: purchased signalchem
In words: HTRF kinase inhibition assay, TRKA(G595R). It counts as biochemical. The method, then: (§1) The compound to be tested with a certain concentration gradient and an enzyme solution were successively added into a plate (kinase buffer (1× kinase buffer (Cisbio, Cat #62EZBFDD), pH 7.5; 5 mM MgCl2, 1 mM DTT) was added into negative control wells), and the compound plate was centrifuged at 1000 rpm for 30 seconds. The plate was sealed and incubated in a Constant Temperature Incubator at 25° C. for 30 min. A substrate solution containing TK-Sub-biotin (Cisbio, Cat #61TKOBL) and ATP (Sigma, Cat #R0441) was prepared, the substrate solution was added into a 384-well plate, and the plate was centrifuged at 1000 rpm for 30 seconds. The plate was sealed and incubated in a Constant Temperature Incubator at 25° C. for 60 min.
(§2) TK antibody and XL665 were diluted, mixed and added into the assay plate, and the plate was centrifuged at 1000 rpm for 30 seconds. The plate was sealed and incubated in a Constant Temperature incubator Incubator at 25° C. for 60 min. The assay plate was placed on an Envision reader for reading. (HTRF 665/615 ratio: signal value at 665 nm/signal value at 615 nm) Inhibition=(rationegative control well−ratiocompound well)/(rationegative control well−ratioenzyme-free control well)×100% 1.3 Data Analysis and Curve Fitting
(§3) Data were fitted in XLFit excel add-in version 5.4.0.8 to obtain IC50 values.
A general note: TR-FRET usually uses a lanthanide donor and a delayed reading to cut background.

Series [1] concerns Ba/F3 LMNA-NTRK1-G595R model. The note with it: gavage. Here is the method: (§4) The cells in the logarithmic growth phase were collected and re-suspending in serum-free culture medium to make the cell concentration at […] cells/mL. The cell suspension was added with equal volume of Matrigel to make the final cell concentration at 3×10^7-5×10^7 cells/mL. The animal model was established by subcutaneously inoculating 0.1 mL of tumor cell suspension in the axilla of the forelimb of NuNu mice (female, 4-6 weeks, Beijing Vital River Laboratory Animal Technology Co., Ltd.) in an amount of 3×10^6-5×10^6 cells/mouse.
(§5) The maximum and the minimum tumor diameters of the xenografts in nude mice were measured using a vernier caliper, and the tumor volume (TV) was calculated according to the formula: V=½×a×b^2, where a and b represent the maximum and minimum diameters of the tumor mass, respectively. Nude mice with appropriate tumor volume were selected and the mice were evenly divided into 7 groups of 6 mice (100-200 mm^3) by tumor volume using a random number method.
(§6) Tumor diameters were measured twice weekly and tumor volume was calculated. […] (where Ti represents the mean tumor volume of a certain administration group on a certain day; TO represents the mean tumor volume of the administration group at the start of administration, Vi represents the mean tumor volume of the vehicle control group on a certain day (same day as Ti) and V0 represents the mean tumor volume of the vehicle control group at the start of administration); • Tumor inhibition rate: at the end of the test, the animals were executed by removing the cervical vertebrae.

Series [2] concerns Ba/F3 LMNA-NTRK1-G667C model. To be noted: 100 mg/kg, gavage. The method, then: as §4, §5, §6
A further series has as its target T2, TRKA (Homo sapiens, UniProt P04629).
T2 construct: purchased Bioduro
In words: HTRF kinase inhibition assay, TRKA. It counts as biochemical. The method, then: as §1, §2, §3

A further series addresses T3, Ba/F3 LMNA-NTRK1 (Homo sapiens, UniProt P04629).
T3 construct: fused on or other part: P02545 (Prelamin-A/C)
Briefly: In vitro cell proliferation inhibition (MTT). It counts as cell-based, murine. The note with it: 72 h, read-out: IC50 Ba/F3 LMNA-NTRK1. The method, then: (§7) Cells in the logarithmic growth phase were harvested and counted using a […]. The cell suspension with a certain density was pipetted uniformly and seeded into a 96-well plate with each well of 100 μL, and shaken to make the cells uniformly disperse into the wells. 100 μL of compound solution with certain concentration gradient was added into each well, and 3 duplicate wells were set for each concentration. The plate was cultured in a CO2 incubator at 37° C. for 72 h. 20 μL of MTT working solution (5 mg/mL) was added into each well, and the plate was placed at 37° C. for 4 h, and centrifuged at 1000 rpm for 5 min by a plate centrifuge. After 180 μL of culture medium was discarded, the plate was added with 150 μL of DMSO, and mixed well with a microplate shaker, the plate bottom was wiped, and optical density (OD) at 550 nm was detected with a microplate reader.

In another series the target is T4, Ba/F3 LMNA-NTRK1-G667C (Homo sapiens, UniProt P04629, G667C, cells depend on it).
T4 construct: fused on or other part: P02545 (Prelamin-A/C)
Briefly: In vitro cell proliferation inhibition (MTT). It counts as cell-based, murine. The note with it: 72 h, read-out: IC50 Ba/F3 LMNA-NTRK1-G667C. The method, then: as §7

In another series the target is T5, Ba/F3 LMNA-NTRK1-G595R (Homo sapiens, UniProt P04629, G595R, cells depend on it).
T5 construct: fused on or other part: P02545 (Prelamin-A/C)
Briefly: In vitro cell proliferation inhibition (MTT). It counts as cell-based, murine. To be noted: 72 h, read-out: IC50 Ba/F3 LMNA-NTRK1-G595R. The method, then: as §7

The next series addresses T6, Ba/F3 ETV6-NTRK3-G623R (Homo sapiens, UniProt Q16288, G623R, cells depend on it).
T6 construct: fused on or other part: P41212 (Transcription factor ETV6)
In words: In vitro cell proliferation inhibition (MTT). It counts as cell-based, murine. To be noted: 72 h, read-out: IC50 Ba/F3 ETV6-NTRK3-G623R. The method, then: as §7

Another series concerns the target T7, Ba/F3 ETV6-NTRK2 (Homo sapiens, UniProt Q16620).
T7 construct: fused on or other part: P41212 (Transcription factor ETV6)
In words: In vitro cell proliferation inhibition (MTT). To be noted: 72 h, read-out: IC50 Ba/F3 ETV6-NTRK2. It counts as cell-based, murine. Here is the method:
as §7

The target of another series is T8, TRKB (Homo sapiens, UniProt Q16620).
T8 construct: purchased Bioduro
In words: HTRF kinase inhibition assay, TRKB. It counts as biochemical. The method, then: as §1
(§8) TK antibody and XL665 were diluted, mixed and added into the assay plate, and the plate was centrifuged at 1000 rpm for 30 seconds. The plate was sealed and incubated in a Constant Temperature incubator Incubator at 25° C. for 60 min. The assay plate was placed on an Envision reader for reading.
as §3

The next series deals with T9, TRKA(G667C) (Homo sapiens, UniProt P04629, G667C).
T9 construct: purchased signalchem
In words: HTRF kinase inhibition assay, TRKA(G667C). It counts as biochemical. The method, then: as §1, §2, §3

For a further series, the target named is T10, TRKC(G696A) (Homo sapiens, UniProt Q16288, G696A).
T10 construct: purchased Bioduro
In words: HTRF kinase inhibition assay, TRKC(G696A). It counts as biochemical. The method, then: as §1, §8, §3

A further series has as its target T11, Ba/F3 ETV6-NTRK3-G696A (Homo sapiens, UniProt Q16288, G696A, cells depend on it).
T11 construct: fused on or other part: P41212 (Transcription factor ETV6)
Briefly: In vitro cell proliferation inhibition (MTT). The note with it: 72 h, read-out: IC50 Ba/F3 ETV6-NTRK3-G696A. It counts as cell-based, murine. The method, then:
• Source of 6 kinds of cell lines for the test: KYinno Biotechnology (Beijing) Co., Ltd. • Cell type: murine B cells • Culture medium: RPMI-1640+10% FB S 2. Test Method
as §7

A further series deals with T12, TRKC (Homo sapiens, UniProt Q16288).
T12 construct: purchased Bioduro
Briefly: HTRF kinase inhibition assay, TRKC. It counts as biochemical. The method, then: as §1, §2, §3

Another series concerns the target T13, TRKC(G623R) (Homo sapiens, UniProt Q16288, G623R).
T13 construct: purchased Bioduro
In words: HTRF kinase inhibition assay, TRKC(G623R). It counts as biochemical. The method, then:
as §1, §2, §3

The target in a further series is T14, ROS1 (Homo sapiens, UniProt P08922).
T14 construct: purchased Carna 08-163
In words: Kinase inhibition assay with fluorescein labeled peptide, ROS1. It counts as biochemical. Here is the method:
(§9) Compounds were diluted to a certain concentration in DMSO with 4-fold gradients. The compound with a certain concentration, an enzyme solution and DMSO were added into a 384-well plate, and the plate was incubated at room temperature for 10 min. […] The plate was subjected to reading.

The target of a further series is T15, ALK (Homo sapiens, UniProt Q9UM73).
T15 construct: purchased Carna 08-105
Briefly: Kinase inhibition assay with fluorescein labeled peptide, ALK. It counts as biochemical. Here is the method: as §9

Series [3] deals with tropomyosin receptor kinase. The note with it: 46 evaluable patients, phase I and phase II clinical trials; cited from earlier work.

Molecules are shown by their SMILES. Where two headings read alike, the source gives them in different places.

In general, IC50 refers to the point on the concentration scale where inhibition reaches its midpoint. Higher therefore signals a need for much substance.

`O=C(Nc1ccc(C2CCN(C(=O)CO)CC2)cc1)c1cnn2ccc(N3C[C@@H](F)C[C@@H]3c3cc(F)ccc3F)nc12` [Compound 10, 5-((2R,4S)-2-(2,5-difluorophenyl)-4-fluoropyrrolidin-1-yl)-N-(4-(1-(2-hydroxyacetyl)piperidin-4-yl)phenyl)pyrazolo[1,5-a]pyrimidine-3-carboxamide]: the 50% inhibitory concentration (IC50) against TRKA(G595R) is less than 0.169 nM; on TRKA, 0.322 nM; against TRKB it was 1.15 nM; against TRKA(G667C), 0.57 nM; against TRKC(G696A) it was 0.558 nM; against TRKC, 1.04 nM. Also, the IC50 against TRKC(G623R) is 0.804 nM; on ROS1 it was 0.4 nM; at ALK, 31 nM. Moreover, the “Number of animals (Survival/total)” value in series [1] (50 mg/kg), in series [1] (100 mg/kg) and in series [2] was “(6/6)” each time. Besides, the entries for the “Rate of weight gain (%)” value in series [1] (50 mg/kg), in series [1] (100 mg/kg) and in series [2] were 13.47%, 4.36% and 5.75%, respectively. Moreover, the figures for the “TGI (%)” value in [1] (50 mg/kg), in [1] (100 mg/kg) and in series [2] were 134.7%, 132.5% and 111.6%, respectively. For the same compound, the results for the “Tumor volume (mm^3)” value in [1] (50 mg/kg), in series [1] (100 mg/kg) and in [2] were 20.0 ± 12.6 mm^3, 25.8 ± 8.3 mm^3 and 91.6 ± 19.5 mm^3, respectively. The “Tumor weight” value in series [1] (50 mg/kg) is recorded as 0.01 ± 0.01 g; in series [1] (100 mg/kg), 0.02 ± 0.01 g; in series [2] it was 0.12 ± 0.02 g. The entries for the “Tumor weight inhibition rate (%)” value in series [1] (50 mg/kg), in series [1] (100 mg/kg) and in [2] were 98.09%, 96.75% and 77.80%, respectively. In addition, the GI50 on Ba/F3 LMNA-NTRK1 was 0.526 nM; at Ba/F3 LMNA-NTRK1-G667C, 0.536 nM; at Ba/F3 LMNA-NTRK1-G595R, 0.095 nM; at Ba/F3 ETV6-NTRK3-G623R, 0.277 nM; on Ba/F3 ETV6-NTRK2 it was 0.977 nM; at Ba/F3 ETV6-NTRK3-G696A, 0.693 nM.

Take `O=C(Nc1ccc(NC2COC2)cc1)c1cnn2ccc(N3C[C@@H](F)C[C@@H]3c3cc(F)ccc3F)nc12` [Compound 19, 5-((2R,4S)-2-(2,5-difluorophenyl)-4-fluoropyrrolidin-1-yl)-N-(4-(oxetan-3-ylamino)phenyl)pyrazolo[1,5-a]pyrimidine-3-carboxamide]: the IC50 was less than 0.169 nM against TRKA(G595R); 0.265 nM against TRKA; 0.984 nM against TRKB; 0.308 nM against TRKA(G667C); 0.936 nM on TRKC(G696A); 0.724 nM against TRKC. Further, the IC50 was 0.241 nM against TRKC(G623R), 0.23 nM at ROS1 and 39 nM at ALK. For the same compound, the GI50 on Ba/F3 LMNA-NTRK1 stood at 0.416 nM; at Ba/F3 LMNA-NTRK1-G667C, 1.19 nM; at Ba/F3 LMNA-NTRK1-G595R it was 0.208 nM; on Ba/F3 ETV6-NTRK3-G623R, 0.426 nM; on Ba/F3 ETV6-NTRK2, 0.866 nM; on Ba/F3 ETV6-NTRK3-G696A, 0.321 nM.

Regarding `O=C(Nc1ccc(N2CC[C@H](O)C2)cc1)c1cnn2ccc(N3C[C@@H](F)C[C@@H]3c3cc(F)ccc3F)nc12` [Compound 21], the half-inhibitory concentration (IC50) against TRKA(G595R) was less than 0.169 nM; at TRKA, 0.405 nM; at TRKB it was 1.55 nM; on TRKA(G667C), 0.632 nM; against TRKC(G696A) it was 1.2 nM; at TRKC, 0.901 nM. In addition, the IC50 was found to be 0.749 nM at TRKC(G623R), 0.33 nM on ROS1 and 30 nM against ALK. Also, the GI50 on Ba/F3 LMNA-NTRK1-G667C stood at 0.584 nM.

On to `O=C(Nc1cnn2ccc(N3CCC[C@@H]3c3cc(F)ccc3F)nc12)N1CC[C@H](O)C1` [LOXO-101, Larotrectinib], for which the GI50 at Ba/F3 ETV6-NTRK3-G623R worked out at 376 nM; at Ba/F3 ETV6-NTRK2, 15.1 nM; at Ba/F3 ETV6-NTRK3-G696A, 35.8 nM. In series [3], the “Overall Response Rate (ORR)” value is on record as 78%. In addition, the IC50 against ALK was more than 1000 nM.

(Values after US12643906B2, “Fused aza-heterocyclic amide compound and use thereof” (CSPC ZHONGQI PHARMACEUTICAL TECHNOLOGY (SHIJIAZHUANG) CO., …, priority 2020, dated 2026).)
